“And” between values parts separate entries of the source, which are not always exact repeats. Equal values may be shown once. “Also recorded” adds a separate entry of the source.
Experiments:
[1] = tested on: Saos-2 osteosarcoma cell line; assay: Luminex cytokine profiling; type: cell-based, Human
Protocol: (§1) Saos-2 osteosarcoma and 93T449 liposarcoma cell lines were pretreated at IC5072 with small molecule GSK-3 inhibitor 9-ING-41 (elraglusib). The cells were harvested for western blot analysis after 48 hours of treatment. Additionally, both cancer cell lines as well as TALL-104 T-cells and NK-92 NK cells were treated with 0.5 μM 9-ING-41 for 24 hours and harvested for Luminex cytokine profiling. […] Additionally, an increase in PD-L1 expression was observed. […] Follow-up cytokine profiling is in progress. […] The potential synergistic effect of these two therapies is currently under investigation with co-culture experiments of sarcoma and immune cells. The treatment cohorts for these experiments include 9-ING-41 combined with either anti-PD-L1, anti-PD-1, or anti-CTLA-4 immune checkpoint inhibitors.

[2] = tested on: 93T449 liposarcoma cell line; assay: Luminex cytokine profiling; type: cell-based, Human; details: 93T449, 0.5 μM 9-ING-41 for 24 hours
Protocol: as §1

[3] = 1801 adult study, tolerated dose level; type: in vivo, human (adult)
refractory malignancies = assay: Phase 1/2 study of 9-ING-41 as a single agent or with chemotherapy in pediatric patients with refractory malignancies; type: in vivo, human (pediatric patients); details: for OS (overall survival) / Notes (response): intermediate data; for Best Response / Status Last FUP / Survival: unaudited data
[4] = tested on: Saos-2 osteosarcoma cell line; assay: Western blot analysis after 9-ING-41 treatment; type: cell-based, Human; details: Saos-2, pretreated at IC5072, harvested after 48 hours
Protocol: as §1

[5] = tested on: 93T449 liposarcoma cell line; assay: Western blot analysis after 9-ING-41 treatment; type: cell-based, Human; details: 93T449, pretreated at IC5072, harvested after 48 hours
Protocol: as §1

TALL-104 T-cells = assay: Luminex cytokine profiling; type: cell-based; details: 0.5 μM 9-ING-41 for 24 hours
Protocol: as §1

NK-92 NK cells = assay: Luminex cytokine profiling; type: cell-based; details: NK-92 cells, 0.5 μM 9-ING-41 for 24 hours
Protocol: as §1

[6] = Human pharmacokinetics of 9-ING-41 from study NCT03678883; details: in vivo, intravenous, dose 9.3 mg/kg (current dose)
Excerpt: Example 1. Human Pharmacokinetics of 9-ING-41 from Study

[7] = CIC rearranged sarcoma patient, elraglusib 15 mg/kg + Cyclophosphamide/topotecan
[8] = Ependymoma patient, elraglusib 9.3 mg/kg + Cyclophosphamide/topotecan
[9] = Ependymoma patient, elraglusib 12.4 mg/kg, chemotherapy backbone N/A
[10] = Ependymoma patient, elraglusib 15 mg/kg + Irinotecan
[11] = Ewing sarcoma patient, 9-ING-41 9.3 mg/kg + Cyclophosphamide/topotecan
[12] = Ewing sarcoma patient, elraglusib 9.3 mg/kg + Cyclophosphamide/topotecan
[13] = Ewing sarcoma patient, elraglusib 12.4 mg/kg + Cyclophosphamide/topotecan
[14] = Ewing sarcoma patient, elraglusib 15 mg/kg + Cyclophosphamide/topotecan
[15] = Glioblastoma multiforme (GBM) patient, elraglusib 12.4 mg/kg + Cyclophosphamide/topotecan
[16] = Neuroblastoma patient, 9-ING-41 12.4 mg/kg + Cyclophosphamide/topotecan
[17] = Neuroblastoma patient, elraglusib 9.3 mg/kg + Irinotecan
[18] = Neuroblastoma patient, elraglusib 12.4 mg/kg + Cyclophosphamide/topotecan
[19] = Neuroblastoma patient, elraglusib 12.4 mg/kg + Irinotecan
[20] = Neuroblastoma patient, elraglusib 15 mg/kg + Cyclophosphamide/topotecan
[21] = Osteosarcoma patient, elraglusib 9.3 mg/kg + Cyclophosphamide/topotecan
[22] = Rhabdomyosarcoma patient, elraglusib 9.3 mg/kg + Irinotecan
[23] = seven metastatic, refractory Ewing and Ewing-like sarcoma patients, elraglusib+cyclophosphamide/topotecan

Cn1cc(C2=C(c3coc4ccc(F)cc34)C(=O)NC2=O)c2cc3c(cc21)OCO3 [9-ING-41, 3-(5-Fluorobenzofuran-3-yl)-4-(5-methyl-5H-[1,3]dioxolo[4,5-f]indol-7-yl) pyrrole-2,5-dione]
IL-6 ([1]; Saos-2 (only this cancer cell line), 0.5 μM 9-ING-41 for 24 hours): increase | growth factor TGF-α ([1]; Saos-2, 0.5 μM 9-ING-41 for 24 hours): homogenous increase | growth factor TGF-α [2]: homogenous increase | highest currently tolerated dose level [3]: tolerated dose level in the 1801 adult study (15 mg/kg). | patients with stable disease (refractory malignancies; 6 patients (2 NBL, 1 aRMS, 1 EP, 1 OS, 1 GBM)): 26.1% | patients remaining on study treatment ≥3 months (refractory malignancies; 8 pts (2 NBL, 2 EP, 1 OS, 1 aRMS, 1 ES, 1 PB)): 35% | OS (overall survival) (refractory malignancies; Adrenocortical carcinoma patient, 9-ING-41 15 mg/kg + Cyclophosphamide/topotecan): 102 days | OS (overall survival) (refractory malignancies; Alveolar rhabdomyosarcoma patient, 9-ING-41 9.3 mg/kg + Irinotecan): 375 days | OS (overall survival) (refractory malignancies; CIC rearranged sarcoma patient, 9-ING-41 15 mg/kg + Cyclophosphamide/topotecan): 47 days | Best Response (refractory malignancies; [7]): PD (progressive disease) | Status Last FUP (refractory malignancies; [7]): Dead | Survival (refractory malignancies; [7]): 48 days | OS (overall survival) (refractory malignancies; Embryonal CNS tumor NOS patient, 9-ING-41 9.3 mg/kg + Irinotecan): 262 days | Best Response (refractory malignancies; [8]): PD (progressive disease) | Status Last FUP (refractory malignancies; [8]): Alive | Survival (refractory malignancies; [8]): 182 days | Best Response (refractory malignancies; [9]): SD (stable disease) | Status Last FUP (refractory malignancies; [9]): Dead | Survival (refractory malignancies; [9]): 440 days | Best Response (refractory malignancies; [10]): SD (stable disease) | Status Last FUP (refractory malignancies; [10]): Dead | Survival (refractory malignancies; [10]): 757 days and 526 days | Notes (response) (refractory malignancies; [11]): pCR- | OS (overall survival) (refractory malignancies; [11]): 379 days | OS (overall survival) (refractory malignancies; Ewing sarcoma patient, 9-ING-41 12.4 mg/kg + Cyclophosphamide/topotecan): 176 days | Status Last FUP (refractory malignancies; [12]): Alive | Survival (refractory malignancies; [12]): 804 days | Best Response (refractory malignancies; [13]): SD (stable disease) | Status Last FUP (refractory malignancies; [13]): Dead | Survival (refractory malignancies; [13]): 177 days | Best Response (refractory malignancies; [14]): SD (stable disease); also recorded: PR (partial response) | Status Last FUP (refractory malignancies; [14]): Dead and Alive | OS (overall survival) (refractory malignancies; Glioblastoma multiforme (GBM) patient, 9-ING-41 12.4 mg/kg + Cyclophosphamide/topotecan): 406 days | Best Response (refractory malignancies; [15]): SD (stable disease) | Status Last FUP (refractory malignancies; [15]): Alive | Survival (refractory malignancies; [15]): 407 days | OS (overall survival) (refractory malignancies; High grade astrocytoma patient, 9-ING-41 15 mg/kg, combo treatment N/A): 97 days | OS (overall survival) (refractory malignancies; Neuroblastoma patient, 9-ING-41 9.3 mg/kg + Irinotecan, 9.3 mg/kg): 245 days and 389 days | Notes (response) (refractory malignancies; [16]): pCR- | OS (overall survival) (refractory malignancies; [16]): 308 days | OS (overall survival) (refractory malignancies; Neuroblastoma patient, 9-ING-41 15 mg/kg + Cyclophosphamide/topotecan): 113 days | OS (overall survival) (refractory malignancies; Neuroblastoma patient, 9-ING-41 15 mg/kg + Irinotecan): 68 days | Best Response (refractory malignancies; [17]): SD (stable disease); also recorded: PD (progressive disease) | Status Last FUP (refractory malignancies; [17]): Dead | Survival (refractory malignancies; [17]): 245 days and 389 days | Status Last FUP (refractory malignancies; [18]): Dead | Survival (refractory malignancies; [18]): 438 days | Best Response (refractory malignancies; [19]): SD (stable disease) | Status Last FUP (refractory malignancies; [19]): Dead | Survival (refractory malignancies; [19]): 360 days | Best Response (refractory malignancies; [20]): SD (stable disease) | Status Last FUP (refractory malignancies; [20]): Alive | Survival (refractory malignancies; [20]): 440 days | OS (overall survival) (refractory malignancies; Osteosarcoma patient, 9-ING-41 9.3 mg/kg + Cyclophosphamide/topotecan): 389 days | Best Response (refractory malignancies; [21]): SD (stable disease) | Status Last FUP (refractory malignancies; [21]): Alive | Survival (refractory malignancies; [21]): 481 days | OS (overall survival) (refractory malignancies; Progressive ependymoma patient, 9-ING-41 9.3 mg/kg + Cyclophosphamide/topotecan): 407 days | OS (overall survival) (refractory malignancies; Recurrent ependymoma patient, 9-ING-41 15 mg/kg + Irinotecan): 403 days | OS (overall survival) (refractory malignancies; Rhabdomyosarcoma patient, 9-ING-41 15 mg/kg + Cyclophosphamide/topotecan): 78 days | OS (overall survival) (refractory malignancies; Rhabdomyosarcoma patient, 9-ING-41 15 mg/kg + Irinotecan): 19 days | Best Response (refractory malignancies; [22]): SD (stable disease) | Status Last FUP (refractory malignancies; [22]): Dead | Survival (refractory malignancies; [22]): 375 days | tolerability (refractory malignancies; heavily pre-treated pediatric patient population): well tolerated | reduction of tumor at the 1st tumor assessment (partial remission) (refractory malignancies; individual Ewing patients, elraglusib+cyclophosphamide/topotecan): 52% and 96% | tumor response at 1st tumor assessment (refractory malignancies; one metastatic, refractory Ewing patient, elraglusib+cyclophosphamide/topotecan, 2 months of treatment): complete remission | radiographic and pathologic response (refractory malignancies; one patient with recurrent Ewing's sarcoma, after 3 cycles of elraglusib/cyclophosphamide/topotecan): complete response | time in remission with no evidence of disease after termination of treatment (refractory malignancies; same Ewing patient, stopped all treatments after 4 months): ~2 years | patients continuing on treatment (refractory malignancies; [23]): three of the seven | patients remaining alive (refractory malignancies; [23]): Four of the seven | PD-L1 expression, western blot [4]: increase | cPARP (apoptotic marker), western blot [4]: increase | PD-L1 expression, western blot [5]: increase | cPARP (apoptotic marker), western blot [5]: increase | CXCL11 (TALL-104 T-cells): increase | IL-18 (TALL-104 T-cells): increased level | IL-8 chemokine (NK-92 NK cells): increase | soluble TRAIL (TRAIL/TNFSF10) (NK-92 NK cells): increase | AUC(0-inf) [6]: 45700 ng·h/mL | Cmax [6]: 6410 ng/mL | half-life [6]: 18.9 ± 6.3 h | AUC(0-t) ([6]; read-out: AUC(0-24)): 42000 ng·h/mL

— patent US20260232634A1, “TREATMENT OF PEDIATRIC CANCERS USING GYLCOGEN SYNTHASE KINASE FORM B INHIBITORS” (Actuate Therapeutics Inc., priority 2023, published 2026)
